# In patent publication US8952024B2, “Herbicidal pyrimidone derivatives” (E I du Pont de Nemours and Company, priority 2009, dated 2015):
# Assays:
# Format in all cases: in vivo
# [1] = tested on: blackgrass (Alopecurus myosuroides); experiment: Test B pre-/postemergence plant response; conditions: for Plant response rating, Blackgrass: Postemergence; for Blackgrass plant response rating (0 to 100 scale): 62 g ai/ha, postemergence, 0 is no effect, 100 is complete control
# In short: (§1)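 Compound in solvent + surfactant applied pre-em (loam/sand) or post-em (plants 2–18 cm, peat medium); greenhouse hold 13–15 days; visual 0–100 control score.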
# [2] = tested on: Surinam grass (Brachiaria decumbens); experiment: Test B pre-/postemergence plant response; conditions: for Plant response rating, Surinam Grass: Postemergence; for Surinam Grass plant response rating (0 to 100 scale): 62 g ai/ha, postemergence, 0 is no effect, 100 is complete control
# In short: as §1
# [3] = tested on: ragweed (common ragweed, Ambrosia elatior); experiment: Test B pre-/postemergence plant response; conditions: for Plant response rating, Ragweed: Postemergence; for Ragweed plant response rating (0 to 100 scale): 62 g ai/ha, postemergence, 0 is no effect, 100 is complete control
# In short: as §1
# [4] = tested on: cocklebur (Xanthium strumarium); experiment: Test B pre-/postemergence plant response; conditions: for Plant response rating, Cocklebur: Postemergence; for Cocklebur plant response rating (0 to 100 scale): 62 g ai/ha, postemergence, 0 is no effect, 100 is complete control
# In short: as §1
# [5] = tested on: corn (Zea mays); experiment: Test B pre-/postemergence plant response; conditions: for Plant response rating, Corn: Postemergence; for Corn plant response rating (0 to 100 scale): 62 g ai/ha, postemergence, 0 is no effect, 100 is complete control
# In short: as §1
# [6] = tested on: morningglory (Ipomoea coccinea); experiment: Test B pre-/postemergence plant response; conditions: for Plant response rating, Morningglory: Postemergence; for Morningglory plant response rating (0 to 100 scale): 62 g ai/ha, postemergence, 0 is no effect, 100 is complete control
# In short: as §1
# [7] = tested on: soybean (Glycine max); experiment: Test B pre-/postemergence plant response; conditions: for Plant response rating, Soybean: Postemergence; for Soybean plant response rating (0 to 100 scale): 62 g ai/ha, postemergence, 0 is no effect, 100 is complete control
# In short: as §1
# [8] = tested on: bermudagrass (Cynodon dactylon); experiment: Test B pre-/postemergence plant response; conditions: for Plant response rating, Bermudagrass: Postemergence; for Bermudagrass plant response rating (0 to 100 scale): 62 g ai/ha, postemergence, 0 is no effect, 100 is complete control
# In short: as §1
# [9] = tested on: Italian ryegrass (Lolium multiflorum); experiment: Test B pre-/postemergence plant response; conditions: for Plant response rating, Ryegrass, Italian: Postemergence; for Ryegrass, Italian plant response rating (0 to 100 scale): 62 g ai/ha, postemergence, 0 is no effect, 100 is complete control
# In short: as §1
# [10] = tested on: ducksalad (Heteranthera limosa); experiment: Test B flooded paddy test; conditions: for Plant response rating, Flood, Ducksalad: 250 g ai/ha, flooded paddy test, visual rating on 0 to 100 scale (0 no effect, 100 complete control) after 13 to 15 days; for Plant response rating, Ducksalad: Flood (flooded paddy test), 62 g ai/ha, scale of 0 to 100 where 0 is no effect and 100 is complete control, 13 to 15 days
# In short: (§2)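 Ratings are visual, 0–100 (100 = complete control), taken versus untreated controls 13 to 15 days after treatment in the greenhouse. Compound went straight into paddy water held 3 cm above soil, applied to 2-leaf-stage plants of four species.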
# [11] = tested on: umbrella sedge (Cyperus difformis); experiment: Test B flooded paddy test; conditions: for Plant response rating, Flood, Sedge, Umbrella: 250 g ai/ha, flooded paddy test, visual rating on 0 to 100 scale (0 no effect, 100 complete control) after 13 to 15 days; for Plant response rating, Sedge, Umbrella: Flood (flooded paddy test), 62 g ai/ha, scale of 0 to 100 where 0 is no effect and 100 is complete control, 13 to 15 days
# In short: as §2
# [12] = tested on: rice (Oryza sativa); experiment: Test B flooded paddy test; conditions: for Plant response rating, Flood, Rice: 250 g ai/ha, flooded paddy test, visual rating on 0 to 100 scale (0 no effect, 100 complete control) after 13 to 15 days; for Plant response rating, Rice: Flood (flooded paddy test), 62 g ai/ha, scale of 0 to 100 where 0 is no effect and 100 is complete control, 13 to 15 days
# In short: as §2
# [13] = tested on: barnyardgrass (Echinochloa crus-galli); experiment: Test B flooded paddy test; conditions: for Plant response rating, Flood, Barnyardgrass: 250 g ai/ha, flooded paddy test, visual rating on 0 to 100 scale (0 no effect, 100 complete control) after 13 to 15 days; for Plant response rating, Barnyardgrass: Flood (flooded paddy test), 62 g ai/ha, scale of 0 to 100 where 0 is no effect and 100 is complete control, 13 to 15 days
# In short: as §2
# [14] = 31 g ai/ha, 0 to 100 scale (0 no effect, 100 complete control)
# [15] = 125 g ai/ha, scale 0 to 100 (0 no effect, 100 complete control)
# [16] = 250 g ai/ha, scale 0 to 100 (0 no effect, 100 complete control), 13 to 15 days
smiles,measurement,setting,value
O=C1CCCC(O)=C1C(=O)c1cnc(-c2ccccc2)n(C2CCCC2)c1=O [Compound 131],"Plant response rating, Blackgrass","[1]; 16 g ai/ha, 0 to 100 scale",0
same,Blackgrass plant response rating (0 to 100 scale),[1]; 13 to 15 days,0
same,"Plant response rating, Blackgrass",[1]; [14],0
same,"Plant response rating, Blackgrass",[1]; [15],0
same,"Plant response rating, Surinam Grass","[2]; 16 g ai/ha, 0 to 100 scale",15
same,Surinam Grass plant response rating (0 to 100 scale),[2]; 13 to 15 days,60
same,"Plant response rating, Surinam Grass",[2]; [14],20
same,"Plant response rating, Surinam Grass",[2]; [15],65
same,"Plant response rating, Ragweed","[3]; 16 g ai/ha, 0 to 100 scale",65
same,Ragweed plant response rating (0 to 100 scale),[3]; 13 to 15 days,85
same,"Plant response rating, Ragweed",[3]; [14],80
same,"Plant response rating, Ragweed",[3]; [15],95
same,"Plant response rating, Cocklebur","[4]; 16 g ai/ha, 0 to 100 scale",80
same,Cocklebur plant response rating (0 to 100 scale),[4]; 13 to 15 days,98
same,"Plant response rating, Cocklebur",[4]; [14],95
same,"Plant response rating, Cocklebur",[4]; [15],100
same,"Plant response rating, Corn","[5]; 16 g ai/ha, 0 to 100 scale",0
same,Corn plant response rating (0 to 100 scale),[5]; 13 to 15 days,10
same,"Plant response rating, Corn",[5]; [14],0
same,"Plant response rating, Corn",[5]; [15],20
same,"Plant response rating, Morningglory","[6]; 16 g ai/ha, 0 to 100 scale",5
same,Morningglory plant response rating (0 to 100 scale),[6]; 13 to 15 days,70
same,"Plant response rating, Morningglory",[6]; [14],70
same,"Plant response rating, Morningglory",[6]; [15],75
same,"Plant response rating, Soybean","[7]; 16 g ai/ha, 0 to 100 scale",75
same,Soybean plant response rating (0 to 100 scale),[7]; 13 to 15 days,95
same,"Plant response rating, Soybean",[7]; [14],75
same,"Plant response rating, Soybean",[7]; [15],98
same,"Plant response rating, Bermudagrass","[8]; 16 g ai/ha, 0 to 100 scale",60
same,Bermudagrass plant response rating (0 to 100 scale),[8]; 13 to 15 days,75
same,"Plant response rating, Bermudagrass",[8]; [14],65
same,"Plant response rating, Bermudagrass",[8]; [15],85
same,"Plant response rating, Ryegrass, Italian","[9]; 16 g ai/ha, 0 to 100 scale",0
same,"Ryegrass, Italian plant response rating (0 to 100 scale)",[9]; 13 to 15 days,0
same,"Plant response rating, Ryegrass, Italian",[9]; [14],0
same,"Plant response rating, Ryegrass, Italian",[9]; [15],0
same,"Plant response rating, Flood, Ducksalad",[10],85
same,"Plant response rating, Ducksalad",[10],40
same,"Plant response rating, Flood, Sedge, Umbrella",[11],85
same,"Plant response rating, Sedge, Umbrella",[11],20
same,"Plant response rating, Flood, Rice",[12],55
same,"Plant response rating, Rice",[12],25
same,"Plant response rating, Flood, Barnyardgrass",[13],50
same,"Plant response rating, Barnyardgrass",[13],20
COCCCn1c(-c2cccc(Br)c2)ncc(C(=O)C2=C(O)CCCC2=O)c1=O [Compound 140],Blackgrass plant response rating (0 to 100 scale),[1]; 13 to 15 days,0
same,"Plant response rating, Blackgrass",[1]; [14],0
same,"Plant response rating, Blackgrass",[1]; [15],5
same,"Plant response rating, Blackgrass",[1]; [16],5
same,Surinam Grass plant response rating (0 to 100 scale),[2]; 13 to 15 days,50
same,"Plant response rating, Surinam Grass",[2]; [14],50
same,"Plant response rating, Surinam Grass",[2]; [15],55
same,"Plant response rating, Surinam Grass",[2]; [16],65
same,Ragweed plant response rating (0 to 100 scale),[3]; 13 to 15 days,45
same,"Plant response rating, Ragweed",[3]; [14],25
same,"Plant response rating, Ragweed",[3]; [15],65
same,"Plant response rating, Ragweed",[3]; [16],75
same,Cocklebur plant response rating (0 to 100 scale),[4]; 13 to 15 days,15
same,"Plant response rating, Cocklebur",[4]; [14],0
same,"Plant response rating, Cocklebur",[4]; [15],65
same,"Plant response rating, Cocklebur",[4]; [16],95
same,Corn plant response rating (0 to 100 scale),[5]; 13 to 15 days,5
same,"Plant response rating, Corn",[5]; [14],0
same,"Plant response rating, Corn",[5]; [15],25
same,"Plant response rating, Corn",[5]; [16],45
same,Morningglory plant response rating (0 to 100 scale),[6]; 13 to 15 days,60
same,"Plant response rating, Morningglory",[6]; [14],0
same,"Plant response rating, Morningglory",[6]; [15],65
same,"Plant response rating, Morningglory",[6]; [16],65
same,Soybean plant response rating (0 to 100 scale),[7]; 13 to 15 days,60
same,"Plant response rating, Soybean",[7]; [14],10
same,"Plant response rating, Soybean",[7]; [15],75
same,"Plant response rating, Soybean",[7]; [16],80
same,Bermudagrass plant response rating (0 to 100 scale),[8]; 13 to 15 days,75
same,"Plant response rating, Bermudagrass",[8]; [14],60
same,"Plant response rating, Bermudagrass",[8]; [15],85
same,"Plant response rating, Bermudagrass",[8]; [16],90
same,"Ryegrass, Italian plant response rating (0 to 100 scale)",[9]; 13 to 15 days,0
same,"Plant response rating, Ryegrass, Italian",[9]; [14],0
same,"Plant response rating, Ryegrass, Italian",[9]; [15],0
same,"Plant response rating, Ryegrass, Italian",[9]; [16],5
same,"Plant response rating, Flood, Ducksalad",[10],85
same,"Plant response rating, Ducksalad",[10],50
same,"Plant response rating, Flood, Sedge, Umbrella",[11],85
same,"Plant response rating, Sedge, Umbrella",[11],75
same,"Plant response rating, Flood, Rice",[12],40
same,"Plant response rating, Rice",[12],0
same,"Plant response rating, Flood, Barnyardgrass",[13],45
same,"Plant response rating, Barnyardgrass",[13],20
